Entries after “also recorded” stand apart in the source; their conditions may differ.
Legend:
[1] = tested on: olfactory epithelium (OE); assay: Electro-olfactgram (EOG) (Example 25); assay type: in vivo, human; conditions: 20 subjects (10 males, 10 females); 200 fmoles vomeropherins, 400 fmoles olfactants; one second pulses; Fig. 7A
Excerpt: (§1) The stimulation and recording system consists of a "multifunctional miniprobe" described elsewhere (Monti-Bloch, L. and Grosser, B.l. (1991) "Effect of putative pheromones on the electrical activity of the human vomeronasal organ and olfactory epithelium," J. Steroid Biochem. Molec. Biol. 39:573-582.). The recording electrode is a 0.3 mm silver ball attached to a small (0.1 mm) silver wire insulated with Teflon© the surface of the electrode is first treated to produce a silver chloride interface, and is then covered with gelatin It is positioned within a small caliber Teflon© catheter (dia = […]) such that the tip of the electrode protrudes approximately 2 mm. The Teflon© catheter is 10 cm in length and constitutes the terminal extension for a multichannel delivery system which delivers a continuous air stream carrying discreet pulses of chemosensory stimuli. The air stream first passes into a small chamber and is bubbled through a solution containing either a vomeropherin or an olfactant in a diluent or the diluent alone. A solenoid is used to rapidly redirect the air stream from the chamber to a route which bypasses the chamber. This creates a discreet pulse of stimulant in the air stream. A second, outer Teflon® tube with a diameter of 2 mm surrounds the catheter-electrode assemblage, and its central end is connected to an aspirator that provides continuous suction of 3ml/s. This concentric arrangement of the outer suction tube allows the emitted chemosensory stimuli to be localized to an area we call a "minifield" (approx. dia = 1 mm), and it avoids diffusion of substances either to the area outside the intended stimulation site or into the respiratory system. The entire stimulating and recording assemblage may be positioned either on the neurosensory epithelium within the VNO, or on the surface of the olfactory or respiratory epithelium. Electro-vomeronasogram (EVG): Recordings are carried out in a quiet room with the subject supine; the multifunctional miniprobe is initially stabilized within the nasal cavity using a nasal retractor placed in the vestibule. Reference and ground electrodes consist of silver discs (8 mm), both of which are positioned on the glabella.
Electrical signals from the recording electrode are fed to a DC amplifier after which they are digitized, computer monitored, and stored. The peak-to-peak amplitude of the signals is measured, and the area under the depolarization wave is integrated, while continuously monitoring the signal both on the computer screen and on a digital oscilloscope. […]
Effects of Vomeropherins on the EOG: The summated receptor potential from the olfactory epithelium (OE) was recorded in 20 subjects: 10 males and 10 females. […]

VNO [2] = assay: Electro-vomeronasogram (EVG) (Example 25); assay type: in vivo, human; conditions: for EVG response to olfactants delivered to the VNO: male and female subjects, 400 fmoles, Fig. 7B; for EVG response in female subjects (in words): 30 female subjects (ages 20 - 45), Fig. 6B; for EVG response in female subjects (in words) / EVG average response (mean) / EVG response in the male VNO (in words): 100 fmoles; for EVG average response (mean): male subjects (ages 20 to 38), 1 second pulses, p<0.01, Fig. 6A; for EVG response in the male VNO (in words): male subjects, Fig. 6A and Fig. 7
Procedure: The following electrophysiological studies were performed in 60 clinically normal human volunteers of both sexes (30 male and 30 female) whose ages ranged from 20 to 45 years. No anesthetics were used, and female subjects were excluded if pregnant.
as §1
The entrance to the VNO, or vomeronasal pit, is identified by first dilating the nasal aperture and vestibule. A 6x magnifying binocular loupe with halogen illumination is then used to introduce the tip of the Teflon® catheter and recording electrode assemblage into the VNO opening where it is stabilized at an approximate depth of 1 mm within the vomeronasal passage. Optimal placement of the recording electrode is signaled after testing for an adequate depolarization in response to a test substance.
Electrical signals from the recording electrode are fed to a DC amplifier after which they are digitized, computer monitored, and stored. The peak-to-peak amplitude of the signals is measured, and the area under the depolarization wave is integrated, while continuously monitoring the signal both on the computer screen and on a digital oscilloscope. Artifacts produced by respiratory movements are deleted by training the subjects to practice mouth breathing with velopharyngeal closure. Chemosensory Stimulants: Olfactory test substances are cineole, and 1-carvone; vomeropherins are A, B, C, E and F. (Vomeropherins were supplied by Pherin Corporation, Menlo Park, California), Samples of vomeropherins In concentration of 25-800 fmoles are delivered in the continuous air stream for durations from 300 milliseconds to 1 second. Usually, intervals of 3 to 5 minutes separated each series of short test pulses. […]

VNO [3] = assay: Electrodermal activity (EDA) after VNO stimulation (Example 25); assay type: in vivo, human; conditions: p<0.01, n = 30; for skin resistance (electrodermal activity, EDA): male subjects, Fig. 6C; for decrease in EDA: female subjects
Procedure: (§2) Cortical evoked activity was induced by VNO stimulation with vomeropherins, and olfactory stimulation with odorants delivered in 300 ms air pulses. It was recorded using standard electroencephalographic (EEG) electrodes placed at positions Cz-A1 and Tz-A1 of the international […] system; the ground electrode was placed on the mastoid process. Electrodermal activity (EDA) was recorded using standard 8 mm silver electrodes in contact with palmar skin of the medial and ring fingers respectively, through a conductive gel interface. Skin temperature (ST) was recorded by a small (1.0 mm) thermistor probe placed in the right ear lobe. Peripheral arterial pulse (PAP) was monitored with a plethysmograph attached to the tip of the index finger. Respiratory frequency (RF) was measured with an adjustable strain gauge placed around the lower thorax. All electrical signals were DC amplified, digitized (MP-100, Biopac Systems) and continuously monitored utilizing a computer. Statistical Analysis: EVGs or EOGS, peak-to-peak changes and frequency changes of other parameters were measured and statistically analyzed. The significance of the results was determined by either using paired t-tests or analysis of variance (ANOVA). […] Recordings of the EVG were performed on 30 men and 30 women (ages 20 to 45). Vomeropherins were diluted and applied as 1 second pulses to the VNO with […] intervals between pulses when questioned, the subjects were not able to "smell" or otherwise consciously detect any of the vomeropherins.

VNO [4] = assay: Cortical evoked activity (EEG, alpha cortical activity) after VNO stimulation (Example 25); assay type: in vivo, human
Procedure: as §2
[…] […] Synchronization of the EEG was sustained for 1.5 to 2.7 minutes after application of a single pulse of active substance.

VNO [5] = assay: Autonomic responses to Estrene stimulation of the VNO (Example 22); assay type: in vivo, human; conditions: 40 male subjects, 1 second pulse
Procedure: Various autonomic parameters were monitored while 1,3,5(10), 16-Estratetraen-3-yl-acetate was administered to 40 male subjects using the procedure described in Example 20. Propylene glycol was also administered as a control. The ligand was administered as a 1 second pulse. The change in autonomic function was first noted within 2 seconds and lasted for up to 45 seconds.

VNO [6] = assay: Skin temperature (ST) after VNO stimulation (Example 25); assay type: in vivo, human
Procedure: as §2

[7] = tested on: human vomeronasal organ (VNO); assay: Local electrical potentials recorded from the VNO after localized gaseous stimulation (Example 20); assay type: in vivo; conditions: for VNO response, males compared with females (sexually dimorphic): Fig. 2B; for VNO response: males, about 25 pg of steroid-ligand puffed 1 to 2 seconds, response measured in mV x s, Fig. 2A
Procedure: A non-invasive method has been employed to record local electrical potentials from the human vomeronasal organ (VNO) and from the olfactory epithelium (OE). Localized gaseous stimulation was applied to both nasal structures at different instances using specially designed catheter/electrodes connected to a multichannel drug delivery system.
The study was performed on ten clinically normal (screened) volunteers - 2 males and 8 females, ranging in age from 18 to 85 years. The studies were conducted without general or local anesthetics.
The catheter/electrodes were designed to deliver a localized stimulus and simultaneously record the response. In the case of VNO recording, the right nasal fosa of the subject was explored using a nasoscope (nasal specula) and the vomeronasal opening was localized close to the intersection of the anterior edge of the vomer and the nasal floor. The catheter/electrode was gently driven through the VNO-opening and the electrode tip placed in the organ's lumen at 1 to 3 mm from the opening. The nasoscope was then removed. In the case of the OE, recording the procedure was similar except the positioning of the catheter/electrode was gently placed deep in the lateral part of the medial nasal duct, reaching the olfactory mucosa.
Localized gaseous stimulation was done through the catheter/electrode. A constant stream of clean, nonodorous, humidified air at room temperature was continuously passed through a channel of the stimulating system. The stimulating ligand substances were diluted in propylene glycol, mixed with the humidified air, and puffed for from 1 to 2 seconds through the catheter/electrode. It is estimated that this administration provides about 25 pg of steroid-ligand to the nasal cavity.

[8] = males, 200 fmoles, air pulses 300 ms to 1 sec, Fig. 6E
[9] = 30 male subjects, p<0.01, Fig. 6G
[10] = females, single pulse (200 fmoles), Fig. 6F
[11] = 30 female subjects, p<0.01, compared to A and C, Fig. 6H

Question: What does the source list for `CC12CCC(CC1)C(C)(C)O2` [cineole, reference compound]?
Answer: EOG local response of the OE (in words) [1]: strong response in both men and women; also recorded: significant (p<0.01) local response; EVG response to olfactants delivered to the VNO (VNO [2]): only a minor local response in the VNO; also recorded: do not induce a significant EVG response

Question: For `CC(=O)Oc1ccc2c(c1)CC[C@@H]1[C@@H]2CC[C@]2(C)C=CC[C@@H]12` [A, 1,3, 5(10),16-Estratetraen-3-yl acetate], which “skin resistance (electrodermal activity, EDA)” value (VNO [3]) is on record?
Answer: decreased skin resistance

Question: What about the alpha cortical activity (VNO [4]; [8]) of the same molecule?
Answer: significantly increased alpha cortical activity; also recorded: strongest effect

Question: And the “latency of increase in alpha cortical activity” value (VNO [4]; males, 200 fmoles, Fig. 6E)?
Answer: 270 to 380 ms

Question: What about the “change in autonomic function first noted (onset)” value (VNO [5]) of the same molecule?
Answer: ≤ 2 s

Question: And the “change in autonomic function lasted (duration)” value (VNO [5])?
Answer: up to 45 seconds

Question: What about the “integrated receptor potential in the VNO” value (VNO [5]; compared to propylene glycol control, Fig. 4A) of the same molecule?
Answer: significant change

Question: And the galvanic skin response (VNO [5]; compared to propylene glycol control, Fig. 4B)?
Answer: significant change

Question: What about the “skin temperature (ST)” value (VNO [6]; [9]) of the same molecule?
Answer: significant increase in skin temperature

Question: And the “EVG response in female subjects (in words)” value (VNO [2])?
Answer: small effect that was significantly different from F

Question: And the “EVG average response (mean)” value (VNO [2])?
Answer: 11.4 mV

Question: With `C[C@@]12C=CC[C@H]1[C@@H]1CCC3=CC(=O)CC[C@]3(C)[C@H]1CC2` [B, Androsta-4,16-dien-3-one] as the molecule, how does the “EOG local response of the OE (in words)” value [1] read?
Answer: the only vomeropherin having significant effect in the OE; also recorded: significant (p<0.01) local response

Question: And the “decrease in EDA” value (VNO [3])?
Answer: greater decrease in EDA than A or C

Question: What about the alpha cortical activity (VNO [4]; [10]) of the same molecule?
Answer: increased alpha cortical

Question: And the “skin temperature (ST)” value (VNO [6]; [11])?
Answer: significant increase in skin temperature

Question: And the “EVG response in the male VNO (in words)” value (VNO [2])?
Answer: significantly reduced responses in the male VNO

Question: Which “EOG local response of the OE (in words)” value [1] does the source give for `C[C@@]12C=CC[C@H]1[C@@H]1CCC3=C[C@H](O)CC[C@]3(C)[C@H]1CC2` [E, Androsta-4,16-dien-3α-ol] here?
Answer: stronger olfactory effect than does F; also recorded: significant (p<0.01) local response

Question: What about the “EVG response in female subjects (in words)” value (VNO [2]) of the same molecule?
Answer: does not stimulate the VNO in female subjects

Question: `C[C@]12CC[C@@H]3c4ccc(O)cc4CC[C@H]3[C@@H]1C[C@@H](O)[C@@H]2O` [1,3,5(10)-Estratrien-3, 16α,17δ-triol] was tested. Which “VNO response, males compared with females (sexually dimorphic)” value [7] did it give?
Answer: approximately four times as strong in males as it is in females

Question: And the VNO response [7]?
Answer: strong VNO response

Question: Which “decrease in EDA” value (VNO [3]) does the source give for `C[C@@]12C=CC[C@H]1[C@@H]1CCC3=C[C@@H](O)CC[C@]3(C)[C@H]1CC2` [F, Androsta-4,16-dien-3β-ol] here?
Answer: greater decrease in EDA than A or C

Question: What about the alpha cortical activity (VNO [4]; [10]) of the same molecule?
Answer: increased alpha cortical

Question: What about the “skin temperature (ST)” value (VNO [6]; [11]) of the same molecule?
Answer: significant increase in skin temperature

Question: What about the “EVG response in female subjects (in words)” value (VNO [2]) of the same molecule?
Answer: produced the most significant differences within the group

Question: And the “EVG response in the male VNO (in words)” value (VNO [2])?
Answer: significantly reduced responses in the male VNO

Question: For `C[C@@]12C=CC[C@H]1[C@@H]1CCc3cc(O)ccc3[C@H]1CC2` [C, 1,3,5(10),16-Estratetraen-3-ol], which “VNO response, males compared with females (sexually dimorphic)” value [7] is on record?
Answer: approximately four times as strong in males as it is in females

Question: What about the VNO response [7] of the same molecule?
Answer: significantly stronger VNO response in males than do the other compounds tested

Question: And the “skin resistance (electrodermal activity, EDA)” value (VNO [3])?
Answer: decreased skin resistance

Question: And the alpha cortical activity (VNO [4]; [8])?
Answer: significantly increased alpha cortical activity

Question: What about the “latency of increase in alpha cortical activity” value (VNO [4]; males, 200 fmoles, Fig. 6E) of the same molecule?
Answer: 270 to 380 ms

Question: What about the “skin temperature (ST)” value (VNO [6]; [9]) of the same molecule?
Answer: significant increase in skin temperature

Question: And the “EVG average response (mean)” value (VNO [2])?
Answer: 6.4 mV

Question: For `C=C(C)[C@@H]1CC=C(C)C(=O)C1` [1-carvone, reference compound], which “EOG local response of the OE (in words)” value [1] is on record?
Answer: strong response in both men and women; also recorded: significant (p<0.01) local response

Question: What about the “EVG response to olfactants delivered to the VNO” value (VNO [2]) of the same molecule?
Answer: only a minor local response in the VNO; also recorded: do not induce a significant EVG response

Source: patent EP0715517B1, “ESTRENE STEROIDS AS NEU[…] CHANGE IN HUMAN HY[…] AND RELATED PHARMACEUTICAL COMPOSITIONS” (priority 1993, dated 1994)
